Earlier results on three compounds are cited in patent US9316644B2, “Method for establishing the sensitivity of tumours to capecitabin and test kit” (SANOXSYS GMBH, priority 2006, dated 2016).

Like-named read-outs stand apart in the source and are kept apart here.

Data set [1] relates to metastatic mamma carcinomas. Particulars: for median reaction duration: in vivo; for ORR (overall response): second line after anthracycline failure.
The test system of data set [2] is progressive mamma carcinoma. Particulars: of 25 patients; continuous low-dose 5-FU.
The test system of data set [3] is metastatic mamma carcinomas.
The subject of data set [4] is metastatic mamma carcinoma.
[5] abbreviates: 68 patients evaluable for effectivity.

On to `CC(=O)O[C@H]1C(=O)[C@@]2(C)[C@H]([C@H](OC(=O)c3ccccc3)[C@]3(O)C[C@H](OC(=O)[C@H](O)[C@@H](NC(=O)c4ccccc4)c4ccccc4)C(C)=C1C3(C)C)[C@]1(OC(C)=O)CO[C@@H]1C[C@@H]2O` [Paclitaxel], for which, in data set [1], the median reaction duration is listed as 9.4 months and the “ORR (overall response)” value was 21%.
Take `O=c1[nH]cc(F)c(=O)[nH]1` [5-FU, 5-Fluorouracil]: the “patients achieving an objective reaction” value in data set [2] is listed as 8 patients.
Consider `CCCCCOC(=O)Nc1nc(=O)n(C2OC(C)C(O)C2O)cc1F` (centres unmarked) [capecitabine, Pentyl[1-(3,4-dihydroxy-5-methyl-tetrahydrofuran-2-yl)-5-fluoro-2-oxo-1H-pyrimidin-4-yl]aminomethanoat], for which, in data set [3] (human, in vivo), the mean remission duration is reported as 241 days, the median survival was 384 days, the “median time until progression” value is 93 days and the “patients with stable sequence of the illness” value is 43%. For the same compound, in data set [3] (human, in vivo), the therapy-induced fatalities result is listed as “did not occur”. The objective remission rate in data set [3] (intend to treat evaluation, 162 patients, 2510 mg/m^2/day for 14 days, 7-day break) is on record as 20%. In data set [3] (no pre-medication or primary prophylaxis necessary), the tolerability result was “excellent tolerability profile”. In addition, the “patients whose pain was reduced by more than 50%” value in data set [3] (of 51 patients with pain figure above 20 mm on analogue pain scale at start) is listed as 47%. Moreover, in data set [3] (sub-group of 42 anthracycline and paclitaxel therapy refractory patients), the reaction rate is on record as 29%. Besides, the combination effect result (with CPT-11, Tomudex, Mitomycin C or Cyclophosphamide) is listed as “additive”. For the same compound, the combination effect result (with Paclitaxel or Docetaxel) is “supra-additive”. Moreover, the combination effect entry (with a radiation therapy) is “Synergetic effects”. In addition, in data set [1], the median reaction duration was 9.4 months and the “ORR (overall response)” value was 36%. Also, in data set [4] (setting [5]), the complete remission is 3% and the partial remission is 22%. Moreover, in data set [4] (CTC degree 1 and 2), the diarrhea is 21%; the lethargy was 18%; the nausea and vomiting was 38%. Moreover, in data set [4] (CTC degree 1 and 2, 1250 mg/m^2 twice a day for 14 days, 7-day break, 77 patients evaluable), the “hand and foot syndrome” value is recorded as 40%. Moreover, the “hand and foot toxicity” value in data set [4] (degree 3) is on record as 14%. Further, the “stabilization of the disease” value in data set [4] (in vivo) was 47%. In addition, the tumor control in data set [4] (patients with intensive previous treatment) is listed as 72%.
